Data as given in paper PMC9601927 (Foods, 2022).
“Also recorded” adds a separate entry of the source.

How the values were obtained:
Caco-2 cell monolayer = experiment: ANC transmembrane transport across Caco-2 cell monolayer (Transwell, HPLC); type: in vitro ADME; conditions: for Transport Efficiency A→B (%) with FA-g-CS Co-Treatment: with 5 × 10^−5 mg/mL FA-g-CS
Protocol: In this work, we utilized and slightly modified a procedure from Zou et al. to perform ANC transport studies. Firstly, ANC commercial powder was pre-dissolved in ultra-pure water and phosphate-buffered solution (PBS, pH7.4) was used for FA-g-CS dissolving. Then, pre-warmed phosphate-buffered saline (PBS) was used to wash and equilibrate the Transwell. Subsequently, the transport buffer containing ANC was added to the basolateral (1.5 mL) or the apical (0.5 mL) side of the inserts, while the corresponding volume of transport buffer was added to the receiving container. Samples measuring 50 uL were taken after 1, 2, 3, and 4 h incubation, and the same amount of pre-warmed PBS was replenished immediately. The samples were treated with HCl and frozen until HPLC analysis. The ANC-absorption-enhancing studies with FA-g-CS across Caco-2 cells were conducted using a transport buffer containing FA-g-CS+ANC instead of ANC alone.
Transport efficiency (A→B (%)) was calculated according to the following formula: (concentrations of the compound at basolateral side overtime)/(concentrations of the compound at the apical side at zero hours) × 100. The apparent permeability coefficient (Papp) was defined as follows: Papp = (dQ/dt)(1/[AC0]); here, A represents the surface area of the Transwell, C0 represents the compound concentration added in the apical side, and the transport rate of the compound over time is denoted by dQ/dt.

Caco-2 cells = type: cell-based; conditions: 2.3 × 10^−4 mg/mL ANC, 48 h
Protocol: Due to cell membrane damage, the intracellular LDH was released into the culture medium. The LDH level was used as an indicator of irreversible cell death. The method used here was based on the spectrophotometric determination at 490 nm of NADH disappearance.
Upon exposure to different concentrations of ANC, FA-g-CS, or their combinations, the culture medium was aspirated and centrifuged at 400× g for 5 min in tubes with a porous matrix to acquire a cell-free supernatant. A measure of 120 microliters of media was mixed with 60 μL of reagent in a 96-well plate, and the absorbance was recorded with PerkinElmer EnVision. The cytotoxicity of these substances was reflected using the following Equation (2):(2) LDH activity(mU/mL)=ODsample−ODblank/ODstandard−ODblank of standard×1000 mU/mL where ODsample, ODblank, ODstandard, and ODblank represent the measurements of the sample, the blank, the standard, and the blank of standard, respectively.

GLUT2 [1] = experiment: Western blot of GLUT2 expression in Caco-2 cells after siRNA transfection and incubation; type: cell-based
Protocol: Firstly, the cells were washed twice with 1 mL of cold PBS and then lysed in 100 μL of ice-cold RIPA lysis buffer. Western blot analysis was performed following the previous method with minor modifications. Briefly, total protein samples were resolved by SDS-PAGE (8%, 10%, or 12%) and transferred to PVDF membranes blocked with 5% nonfat milk powder in TBST; these were then incubated with 8 μg of primary antibody at a dilution of 1:1000/500 (v/v) overnight at 4 °C. Detection was performed with 10 mL of ECL and oxidizing reagent and equal amounts of HRP-conjugated anti-mouse at a 1:5000 (v/v) dilution rate. To further illustrate the effect of FA-g-CS on the transmembrane transport of ANC, the Caco-2 cells were transfected with siRNA targeted to sGLT1 and GLUT2 (the optimal interference fragments screened by previous tests) and then incubated with FA-g-CS, ANC, or their combinations. Finally, the expressions of sGLT1 and GLUT2 were detected using a Western blot assay.

GLUT2 [2] = experiment: Immunofluorescence staining of GLUT2 in Caco-2 cells; type: cell-based; conditions: ANC 2.3 × 10^−4 mg/mL or FA-g-CS 9 × 10^−5 mg/mL, 48 h
Protocol: Immunofluorescence staining was carried out to further validate the effect of FA-g-CS/ANC on the expression of sGLT1 and GLUT2. In short, Caco-2 cells were transfected with NC siRNA (negative control), GLUT2-siRNA-2, and sGLT1-siRNA-3; then, they were seeded onto a 4-well slide and chamber (Watson, Kobe, Japan). Subsequently, cells were incubated with 0.09 µg/mL FA-g-CS, 0.23 µg/mL ANC, or their combination at 37 °C for 48 h. Then, they were fixed with 4% paraformaldehyde for 10 min and soaked with 0.5% Triton X-100 in PBS for 15 min. In this study, goat serum was used to avoid nonspecific binding at room temperature. After 30 min of treatments, the cells were incubated with the primary antibody ([…], Santa Cruz Biotechnology, with 1:100 dilutions) at 4 °C overnight, followed by incubation with the secondary antibody (goat anti-mouse IgG1-HRP, Santa Cruz Biotechnology, Shanghai, China, with 1:100 dilutions) for 1 h at 20–37 °C. Nuclear staining was performed with DAPI, and the images were captured with a fluorescence microscope (BX53, Olympus, Tokyo, Japan).

OC[C@H]1O[C@@H](Oc2cc3c(O)cc(O)cc3[o+]c2-c2ccc(O)c(O)c2)[C@H](O)[C@@H](O)[C@@H]1O [ANC, Cyanidin-3-glucoside]
Transport Efficiency A→B (%) with FA-g-CS Co-Treatment (Caco-2 cell monolayer; ANC 0.05 ×10^−3 mg/mL, 4 h): 1% | Transport Efficiency A→B (%) without FA-g-CS (Caco-2 cell monolayer; ANC 0.05 ×10^−3 mg/mL, 4 h): 0.81% | Transport Efficiency A→B (%) with FA-g-CS Co-Treatment (Caco-2 cell monolayer; ANC 0.10 ×10^−3 mg/mL, 4 h): 2.1% | Transport Efficiency A→B (%) without FA-g-CS (Caco-2 cell monolayer; ANC 0.10 ×10^−3 mg/mL, 4 h): 1.15% | Transport Efficiency A→B (%) with FA-g-CS Co-Treatment (Caco-2 cell monolayer; ANC 0.15 ×10^−3 mg/mL, 4 h): 2.3% | Transport Efficiency A→B (%) without FA-g-CS (Caco-2 cell monolayer; ANC 0.15 ×10^−3 mg/mL, 4 h): 1.18% | Transport Efficiency A→B (%) with FA-g-CS Co-Treatment (Caco-2 cell monolayer; ANC 0.20 ×10^−3 mg/mL, 4 h): 1.65% | Transport Efficiency A→B (%) without FA-g-CS (Caco-2 cell monolayer; ANC 0.20 ×10^−3 mg/mL, 4 h): 0.96% | Concentrations of ANC at the Basolateral Side (Caco-2 cell monolayer; apical ANC 0.05 ×10^−3 mg/mL, in presence of 0.05 × 10^−3 mg/mL FA-g-CS, 1 h): 0.0003 ± 0.00001 b ×10^−3 mg/mL | Concentrations of ANC at the Basolateral Side (Caco-2 cell monolayer; apical ANC 0.05 ×10^−3 mg/mL, in presence of 0.05 × 10^−3 mg/mL FA-g-CS, 2 h): 0.0004 ± 0.00001 c ×10^−3 mg/mL | Concentrations of ANC at the Basolateral Side (Caco-2 cell monolayer; apical ANC 0.05 ×10^−3 mg/mL, in presence of 0.05 × 10^−3 mg/mL FA-g-CS, 3 h): 0.0004 ± 0.00001 c ×10^−3 mg/mL | Concentrations of ANC at the Basolateral Side (Caco-2 cell monolayer; apical ANC 0.05 ×10^−3 mg/mL, in presence of 0.05 × 10^−3 mg/mL FA-g-CS, 4 h): 0.0005 ± 0.00001 d ×10^−3 mg/mL | Concentrations of ANC at the Basolateral Side (Caco-2 cell monolayer; apical ANC 0.05 ×10^−3 mg/mL, without FA-g-CS co-treatment, 1 h): 0.0001 ± 0.00001 a ×10^−3 mg/mL | Concentrations of ANC at the Basolateral Side (Caco-2 cell monolayer; apical ANC 0.05 ×10^−3 mg/mL, without FA-g-CS co-treatment, 2 h): 0.0003 ± 0.00001 b ×10^−3 mg/mL | Concentrations of ANC at the Basolateral Side (Caco-2 cell monolayer; apical ANC 0.05 ×10^−3 mg/mL, without FA-g-CS co-treatment, 3 h): 0.0004 ± 0.00001 c ×10^−3 mg/mL | Concentrations of ANC at the Basolateral Side (Caco-2 cell monolayer; apical ANC 0.05 ×10^−3 mg/mL, without FA-g-CS co-treatment, 4 h): 0.0004 ± 0.00001 c ×10^−3 mg/mL | Concentrations of ANC at the Basolateral Side (Caco-2 cell monolayer; apical ANC 0.10 ×10^−3 mg/mL, in presence of 0.05 × 10^−3 mg/mL FA-g-CS, 1 h): 0.0010 ± 0.0001 bc ×10^−3 mg/mL | Concentrations of ANC at the Basolateral Side (Caco-2 cell monolayer; apical ANC 0.10 ×10^−3 mg/mL, in presence of 0.05 × 10^−3 mg/mL FA-g-CS, 2 h): 0.0010 ± 0.0002 bc ×10^−3 mg/mL | Concentrations of ANC at the Basolateral Side (Caco-2 cell monolayer; apical ANC 0.10 ×10^−3 mg/mL, in presence of 0.05 × 10^−3 mg/mL FA-g-CS, 3 h): 0.0019 ± 0.0001 d ×10^−3 mg/mL | Concentrations of ANC at the Basolateral Side (Caco-2 cell monolayer; apical ANC 0.10 ×10^−3 mg/mL, in presence of 0.05 × 10^−3 mg/mL FA-g-CS, 4 h): 0.0021 ± 0.0002 d ×10^−3 mg/mL | Concentrations of ANC at the Basolateral Side (Caco-2 cell monolayer; apical ANC 0.10 ×10^−3 mg/mL, without FA-g-CS co-treatment, 1 h): 0.0004 ± 0.00002 a ×10^−3 mg/mL | Concentrations of ANC at the Basolateral Side (Caco-2 cell monolayer; apical ANC 0.10 ×10^−3 mg/mL, without FA-g-CS co-treatment, 2 h): 0.0008 ± 0.00001 b ×10^−3 mg/mL | Concentrations of ANC at the Basolateral Side (Caco-2 cell monolayer; apical ANC 0.10 ×10^−3 mg/mL, without FA-g-CS co-treatment, 3 h): 0.0009 ± 0.00001 b ×10^−3 mg/mL | Concentrations of ANC at the Basolateral Side (Caco-2 cell monolayer; apical ANC 0.10 ×10^−3 mg/mL, without FA-g-CS co-treatment, 4 h): 0.0012 ± 0.00002 c ×10^−3 mg/mL | Concentrations of ANC at the Basolateral Side (Caco-2 cell monolayer; apical ANC 0.15 ×10^−3 mg/mL, in presence of 0.05 × 10^−3 mg/mL FA-g-CS, 1 h): 0.0017 ± 0.0002 c ×10^−3 mg/mL | Concentrations of ANC at the Basolateral Side (Caco-2 cell monolayer; apical ANC 0.15 ×10^−3 mg/mL, in presence of 0.05 × 10^−3 mg/mL FA-g-CS, 2 h): 0.0025 ± 0.0002 d ×10^−3 mg/mL | Concentrations of ANC at the Basolateral Side (Caco-2 cell monolayer; apical ANC 0.15 ×10^−3 mg/mL, in presence of 0.05 × 10^−3 mg/mL FA-g-CS, 3 h): 0.0030 ± 0.0001 e ×10^−3 mg/mL | Concentrations of ANC at the Basolateral Side (Caco-2 cell monolayer; apical ANC 0.15 ×10^−3 mg/mL, in presence of 0.05 × 10^−3 mg/mL FA-g-CS, 4 h): 0.0035 ± 0.0001 f ×10^−3 mg/mL | Concentrations of ANC at the Basolateral Side (Caco-2 cell monolayer; apical ANC 0.15 ×10^−3 mg/mL, without FA-g-CS co-treatment, 1 h): 0.0006 ± 0.00001 a ×10^−3 mg/mL | Concentrations of ANC at the Basolateral Side (Caco-2 cell monolayer; apical ANC 0.15 ×10^−3 mg/mL, without FA-g-CS co-treatment, 2 h): 0.0009 ± 0.00002 b ×10^−3 mg/mL | Concentrations of ANC at the Basolateral Side (Caco-2 cell monolayer; apical ANC 0.15 ×10^−3 mg/mL, without FA-g-CS co-treatment, 3 h): 0.0010 ± 0.0003 b ×10^−3 mg/mL | Concentrations of ANC at the Basolateral Side (Caco-2 cell monolayer; apical ANC 0.15 ×10^−3 mg/mL, without FA-g-CS co-treatment, 4 h): 0.0018 ± 0.00001 c ×10^−3 mg/mL | Concentrations of ANC at the Basolateral Side (Caco-2 cell monolayer; apical ANC 0.20 ×10^−3 mg/mL, in presence of 0.05 × 10^−3 mg/mL FA-g-CS, 1 h): 0.0020 ± 0.0001 c ×10^−3 mg/mL | Concentrations of ANC at the Basolateral Side (Caco-2 cell monolayer; apical ANC 0.20 ×10^−3 mg/mL, in presence of 0.05 × 10^−3 mg/mL FA-g-CS, 2 h): 0.0023 ± 0.0002 d ×10^−3 mg/mL | Concentrations of ANC at the Basolateral Side (Caco-2 cell monolayer; apical ANC 0.20 ×10^−3 mg/mL, in presence of 0.05 × 10^−3 mg/mL FA-g-CS, 3 h): 0.0032 ± 0.0001 e ×10^−3 mg/mL | Concentrations of ANC at the Basolateral Side (Caco-2 cell monolayer; apical ANC 0.20 ×10^−3 mg/mL, in presence of 0.05 × 10^−3 mg/mL FA-g-CS, 4 h): 0.0033 ± 0.0001 e ×10^−3 mg/mL | Concentrations of ANC at the Basolateral Side (Caco-2 cell monolayer; apical ANC 0.20 ×10^−3 mg/mL, without FA-g-CS co-treatment, 1 h): 0.0007 ± 0.00001 a ×10^−3 mg/mL | Concentrations of ANC at the Basolateral Side (Caco-2 cell monolayer; apical ANC 0.20 ×10^−3 mg/mL, without FA-g-CS co-treatment, 2 h): 0.001 ± 0.0002 b ×10^−3 mg/mL | Concentrations of ANC at the Basolateral Side (Caco-2 cell monolayer; apical ANC 0.20 ×10^−3 mg/mL, without FA-g-CS co-treatment, 3 h): 0.0012 ± 0.0001 b ×10^−3 mg/mL | Concentrations of ANC at the Basolateral Side (Caco-2 cell monolayer; apical ANC 0.20 ×10^−3 mg/mL, without FA-g-CS co-treatment, 4 h): 0.0019 ± 0.0001 c ×10^−3 mg/mL | cell cytotoxicity (LDH assay) (Caco-2 cells): negligible increase; also recorded: not toxic | expression of GLUT2 compared with the blank (GLUT2 [1]; cells treated with nonrelated and scrambled siRNA): significantly elevated | expression level of GLUT2 compared with the blank control (GLUT2 [1]; cells treated with siRNA transfection): significantly increased | increased GLUT2 expression (GLUT2 [1]; siRNA-transfected Caco-2 cells incubated with compounds (abstract)): < 60% | protein level of GLUT2 (immunofluorescence) compared with the control cells (GLUT2 [2]): increased
